Results as given in patent US20230190611A1, “PERSONAL CARE COMPOSITIONS COMPRISING A METAL PIROCTONE COMPLEX” (Conopco, Inc., d/b/a UNILEVER, priority 2020, published 2023).

Assays:
[1] = Solubility of metal piroctone complexes in 5 wt% aqueous SLES 1EO solution; type: physicochemical; settings: 1% sample in 5 wt% aqueous solution of SLES 1EO at 20° C.
Description: The solubility of metal piroctone complexes at 20° C. in a 5 wt% aqueous solution of SLES 1EO (sodium lauryl ether sulfate) Is listed in Table 1: […]

[2] = UV stability of ethanolic solutions; type: physicochemical; settings: 5 hours of UV irradiation (UVA 180 uW/cm2, UVB210 uW/cm2)
Description: The UV stability of an ethanolic solutions (0.5 mM) of copper piroctone and manganese piroctone were measured and compared with a solution of Octopirox 1 mM solution.

% Solubility [1] [%] | degraded after UV irradiation ([2]; 1 mM solution) [%] | degraded after UV irradiation ([2]; ethanolic solution 0.5 mM) [%] | SMILES
111.8 | – | – | Cc1cc(CC(C)CC(C)(C)C)n([O-])c(=O)c1.Cc1cc(CC(C)CC(C)(C)C)n([O-])c(=O)c1.[Zn+2] (stereo not shown) [1% Zn—PIR, Zinc bis-piroctone, reference compound]
100.2 | 46 | – | Cc1cc(CC(C)CC(C)(C)C)n(O)c(=O)c1.NCCO (stereo not shown) [1% OCT, piroctone olamine, reference compound]
1.0 | – | 3.2 | Cc1cc(CC(C)CC(C)(C)C)n([O-])c(=O)c1.Cc1cc(CC(C)CC(C)(C)C)n([O-])c(=O)c1.[Mn+2] (stereo not shown) [1% Mn—PIR, Manganese bis-piroctone]
1.3 | – | 1.8 | Cc1cc(CC(C)CC(C)(C)C)n([O-])c(=O)c1.Cc1cc(CC(C)CC(C)(C)C)n([O-])c(=O)c1.[Cu+2] (stereo not shown) [1% Cu—PIR, Copper bis-piroctone]
